Assay results as given in ChEMBL document CHEMBL1201862, “PubChem BioAssay data set” (2004).
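Compound exposure: 48 hours, 5 concentrations, 96-well plates. GI50: concentration for 50% inhibition of growth.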 Active and inactive are the calls of the source. Rule as the data show it: active = GI50 up to about 1.1 µM and inactive = higher.

Experiments:
Assay in all cases: NCI anticancer screen, dose series, 48 h
[1] = test system: EKVX
[2] = test system: UO-31
[3] = test system: PC-3
[4] = test system: SNB-19
[5] = test system: OVCAR-5
[6] = test system: NCI-H23
[7] = test system: 786-0
[8] = test system: A498
[9] = test system: HCT-116
[10] = test system: CCRF-CEM
[11] = test system: MOLT-4
[12] = test system: BT-549
[13] = test system: IGROV-1
[14] = test system: DU-145
[15] = test system: NCI/ADR-RES
[16] = test system: SW-620
[17] = test system: MCF7
[18] = test system: Hs-578T
[19] = test system: OVCAR-8

Measured: GI50

CCCCCCCCC/C=C1/CC(CO)(COC(=O)c2ccccc2)OC1=O (stereo not given)
inactive: [1] 14.9 µM | [2] 13 µM | [3] 10.8 µM | [4] 15.4 µM | [5] 12.2 µM | [6] 15 µM | [7] 10.4 µM | [8] 13.2 µM | [9] 23.2 µM | [10] 10.9 µM | [11] 4.98 µM | [12] 14.1 µM | [13] 16.1 µM | [14] 12.9 µM | [15] 15.5 µM | [16] 14.4 µM | [17] 16.3 µM | [18] 3.69 µM

O=P(O)(O)CCP(=O)(O)O
inactive: [1] > 100 µM | [2] > 100 µM | [3] > 100 µM | [4] > 100 µM | [5] > 100 µM | [6] > 100 µM | [19] > 100 µM | [7] > 100 µM | [8] > 100 µM | [9] > 100 µM | [10] > 100 µM | [11] > 100 µM | [12] > 100 µM | [13] > 100 µM | [14] > 100 µM | [15] > 100 µM | [16] > 100 µM | [17] > 100 µM | [18] > 100 µM

COc1ccc(/C=C/NC=O)cc1
inactive: [1] > 100 µM | [2] > 100 µM | [3] > 100 µM | [4] > 100 µM | [5] > 100 µM | [6] > 100 µM | [19] > 100 µM | [7] > 100 µM | [8] > 100 µM | [9] > 100 µM | [10] > 100 µM | [11] > 100 µM | [12] > 100 µM | [13] > 100 µM | [14] > 100 µM | [15] > 100 µM | [16] > 100 µM | [17] > 100 µM | [18] > 100 µM

CCOC(=O)CCC(C(=O)OCC)n1nc2ccc(Nc3c(C)[n+]([O-])c4cc(F)c(OCC)cc4[n+]3[O-])cc2n1 (stereo not given)
inactive: [1] 28.5 µM | [2] 52.4 µM | [3] 37.2 µM | [4] 31.9 µM | [5] > 100 µM | [6] 32.9 µM | [19] 30 µM | [7] 25.3 µM | [8] 52.4 µM | [9] 50.8 µM | [10] > 100 µM | [11] > 100 µM | [12] 34 µM | [13] 78.5 µM | [14] > 100 µM | [15] 62.1 µM | [16] > 100 µM | [17] 61.2 µM | [18] 26.2 µM

CSc1nc(=O)c(C#N)c(-c2ccccc2)n1C1OC(COC(C)=O)C(OC(C)=O)C(OC(C)=O)C1OC(C)=O (stereo not given)
inactive: [1] > 100 µM | [2] 39.2 µM | [3] 52.2 µM | [4] > 100 µM | [5] > 100 µM | [6] > 100 µM | [19] 60.5 µM | [7] 82.6 µM | [8] > 100 µM | [9] 79.4 µM | [10] 99.8 µM | [11] > 100 µM | [12] > 100 µM | [13] > 100 µM | [14] > 100 µM | [15] > 100 µM | [16] > 100 µM | [17] > 100 µM | [18] 39.8 µM

Br[C@@H]1[C@H]2c3nc4ccccc4nc3[C@@H]1C[C@H]2Br
inactive: [1] 86.1 µM | [2] 41.4 µM | [3] 68.4 µM | [4] > 100 µM | [5] > 100 µM | [6] 58.3 µM | [19] > 100 µM | [7] > 100 µM | [8] 46.2 µM | [9] 59.7 µM | [10] 37 µM | [11] 31.7 µM | [12] 65.5 µM | [13] > 100 µM | [14] 53 µM | [15] 51.4 µM | [16] > 100 µM | [17] 81.7 µM | [18] > 100 µM

COc1ccc(C2c3cc4c(cc3C(O)C3CCC(=O)N23)OCO4)cc1 (stereo not given)
inactive: [1] > 100 µM | [2] > 100 µM | [3] > 100 µM | [4] > 100 µM | [5] > 100 µM | [6] > 100 µM | [19] > 100 µM | [7] > 100 µM | [8] > 100 µM | [9] > 100 µM | [10] > 100 µM | [11] > 100 µM | [12] 96.4 µM | [13] > 100 µM | [14] > 100 µM | [15] > 100 µM | [16] > 100 µM | [17] > 100 µM | [18] > 100 µM

O=[N+]([O-])c1ccc(-c2cc(O)c3nc4ccccc4n3c2)cc1
inactive: [1] > 100 µM | [2] > 91.4 µM | [3] > 100 µM | [4] > 53.7 µM | [5] > 100 µM | [6] > 100 µM | [19] 60.1 µM | [7] > 90.6 µM | [8] > 100 µM | [9] > 100 µM | [10] > 100 µM | [11] > 100 µM | [12] > 100 µM | [13] > 100 µM | [14] > 100 µM | [15] > 100 µM | [16] > 100 µM | [17] > 84.7 µM | [18] > 100 µM

c1ccc2c(c1)CCc1[nH]c3c(c1-2)-c1ccccc1CC3
inactive: [1] > 100 µM | [2] > 100 µM | [3] 64.1 µM | [4] > 100 µM | [5] > 100 µM | [6] > 100 µM | [19] > 100 µM | [7] 83 µM | [8] > 100 µM | [9] 96.8 µM | [10] 39.4 µM | [11] 35.6 µM | [12] > 100 µM | [13] > 100 µM | [14] > 100 µM | [15] 98.6 µM | [16] 98.4 µM | [17] 39.9 µM | [18] 36.9 µM

O=C(Nc1ccn(C2CC(I)C(COC(c3ccccc3)(c3ccccc3)c3ccccc3)O2)c(=O)n1)c1ccccc1 (stereo not given)
inactive: [1] 13.2 µM | [2] 4.53 µM | [3] 2.36 µM | [4] 12.9 µM | [5] > 21.5 µM | [6] 6.89 µM | [19] 9.25 µM | [7] 8.34 µM | [8] 7.03 µM | [9] 6.35 µM | [10] 8.89 µM | [11] 4.13 µM | [12] 25.6 µM | [13] 13.3 µM | [14] 11.9 µM | [15] 9.75 µM | [16] 14 µM | [17] 4.86 µM | [18] 3.03 µM

CN(C)CC1CN/C(=N\C(=O)Nc2ccccc2)O1 (stereo not given)
inactive: [1] > 100 µM | [2] > 100 µM | [3] > 100 µM | [4] > 100 µM | [5] > 100 µM | [6] > 100 µM | [19] > 100 µM | [7] > 100 µM | [8] 42.3 µM | [9] > 100 µM | [10] > 100 µM | [11] > 100 µM | [12] > 100 µM | [13] > 100 µM | [14] > 100 µM | [15] > 100 µM | [16] > 100 µM | [17] > 100 µM | [18] > 100 µM

Cc1n[n+](Cc2ccccc2)c2sc(N)nn12
inactive: [1] > 100 µM | [2] > 100 µM | [3] > 100 µM | [4] > 100 µM | [5] > 100 µM | [6] > 100 µM | [19] > 100 µM | [7] > 100 µM | [8] > 100 µM | [9] 76.4 µM | [10] 32 µM | [11] 58.9 µM | [12] 38.4 µM | [13] > 100 µM | [14] > 100 µM | [15] > 100 µM | [16] 64.6 µM | [17] > 100 µM | [18] > 100 µM

COc1cc(N(CCC#N)CCC#N)ccc1C(/N=N/c1cccc([N+](=O)[O-])c1)=N\NC(=O)c1ccc(C)cc1
inactive: [1] 10.4 µM | [2] 71 µM | [3] > 100 µM | [4] > 100 µM | [5] > 100 µM | [6] 37.1 µM | [19] 89.5 µM | [7] > 100 µM | [8] > 100 µM | [9] 50.5 µM | [10] 20.6 µM | [11] 16.9 µM | [12] 22 µM | [13] > 100 µM | [14] > 100 µM | [15] 67.5 µM | [16] > 100 µM | [17] 45 µM | [18] > 100 µM

C=CCOc1ccc(C2C(C(=O)OCC)C(=O)CC(C)(O)C2C(=O)OCC)cc1OC (stereo not given)
inactive: [1] > 100 µM | [2] > 100 µM | [3] > 100 µM | [4] > 100 µM | [5] > 100 µM | [6] > 100 µM | [19] > 100 µM | [7] > 100 µM | [8] > 100 µM | [9] > 100 µM | [10] > 100 µM | [11] > 100 µM | [12] > 100 µM | [13] > 100 µM | [14] > 100 µM | [15] > 100 µM | [16] > 100 µM | [17] > 100 µM | [18] > 100 µM
